pIC50: −log10 of the molar value. Activity calls are given as the source filed them. No cut-off for these calls is given here.
Legend:
Toll-like receptor 1/2 = Toll-like receptor 1/2 (Mus musculus, UniProt Q9EPQ1+Q9QUN7); test: (§1) Antagonist activity at TLR1/2 in mouse RAW264.7 cells assessed as inhibition of Pam3CSK4-induced receptor activation by measuring NO production after 24 hrs; assay type: cell-based
[1] = Cytotoxicity against mouse RAW264.7 cells assessed as decrease in cell viability at 3 uM by MTT assay; assay type: cell-based; conditions: raw264.7, 3 µM
[2] = target: T1, Toll-like receptor 1/2 (Mus musculus) (UniProt Q9QUN7+Q9EPQ1); test: Antagonist activity at TLR1/2 in mouse RAW264.7 cells assessed as inhibition of Pam3CSK4-induced receptor activation by measuring NO production at 3 uM after 24 hrs; assay type: cell-based
[3] = target: T1, Toll-like receptor 1/2 (Mus musculus); test: as §1; assay type: cell-based
[4] = Antiinflammatory activity in hippocampus (unknown origin) assessed as inhibition of Pam3CSK4-induced IL-1beta mRNA expression level at 5 to 50 ng coadministered with Pam3CSK4 via intra-cisterna magna measured after 2 hrs by RT-PCR analysis; assay type: functional
[5] = target: Toll-like receptor 1/2 (Homo sapiens) (UniProt O60603+Q15399); test: Antagonist activity at TLR1/2 in primary microglial cells (unknown origin) assessed as reduction in Pam3CSK4-induced IL-1beta mRNA expression level after 2 hrs; assay type: cell-based
RAW264.7 [6] = test: Inhibition of Pam3CSK4-induced IL-1beta production in mouse RAW264.7 cells at 8 uM after 24 hrs by ELISA; assay type: functional, cell-based
[7] = Cytotoxicity against mouse RAW264.7 cells assessed as decrease in cell viability at 8 uM by MTT assay; assay type: cell-based; conditions: raw264.7, 8 µM
RAW264.7 [8] = test: Inhibition of Pam3CSK4-induced TNF-alpha production in mouse RAW264.7 cells at 8 uM after 24 hrs by ELISA; assay type: functional, cell-based
[9] = Antiinflammatory activity in hippocampus (unknown origin) assessed as inhibition of Pam3CSK4-induced IL-6 mRNA expression level at 5 to 50 ng coadministered with Pam3CSK4 via intra-cisterna magna measured after 2 hrs by RT-PCR analysis; assay type: functional
[10] = Antiinflammatory activity in hippocampus (unknown origin) assessed as inhibition of Pam3CSK4-induced TNF-alpha mRNA expression level at 5 to 50 ng coadministered with Pam3CSK4 via intra-cisterna magna measured after 2 hrs by RT-PCR analysis; assay type: functional

Sequence of Toll-like receptor 1/2 (Q9QUN7 whole entry): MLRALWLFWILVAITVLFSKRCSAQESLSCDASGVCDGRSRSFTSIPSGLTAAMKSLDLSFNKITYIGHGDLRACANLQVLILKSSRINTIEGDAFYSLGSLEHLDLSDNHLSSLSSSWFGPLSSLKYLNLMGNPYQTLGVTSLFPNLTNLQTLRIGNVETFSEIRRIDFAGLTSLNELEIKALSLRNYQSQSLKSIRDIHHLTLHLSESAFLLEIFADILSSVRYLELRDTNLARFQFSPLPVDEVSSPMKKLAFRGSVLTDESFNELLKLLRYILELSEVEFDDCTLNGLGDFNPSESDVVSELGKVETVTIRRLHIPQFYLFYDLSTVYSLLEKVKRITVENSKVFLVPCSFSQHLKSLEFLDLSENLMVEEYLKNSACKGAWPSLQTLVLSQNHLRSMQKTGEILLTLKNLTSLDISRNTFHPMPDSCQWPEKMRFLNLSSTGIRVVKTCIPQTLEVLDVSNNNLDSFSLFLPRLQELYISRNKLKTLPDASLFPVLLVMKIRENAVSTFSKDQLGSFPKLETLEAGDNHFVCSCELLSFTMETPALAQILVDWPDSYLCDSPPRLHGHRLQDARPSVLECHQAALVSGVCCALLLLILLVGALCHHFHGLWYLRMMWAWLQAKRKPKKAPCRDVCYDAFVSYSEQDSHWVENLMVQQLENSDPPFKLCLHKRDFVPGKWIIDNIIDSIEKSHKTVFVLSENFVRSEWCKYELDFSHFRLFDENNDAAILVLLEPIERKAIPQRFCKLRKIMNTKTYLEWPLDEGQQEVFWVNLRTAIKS
Sequence of Toll-like receptor 1/2 (Q9EPQ1 whole entry): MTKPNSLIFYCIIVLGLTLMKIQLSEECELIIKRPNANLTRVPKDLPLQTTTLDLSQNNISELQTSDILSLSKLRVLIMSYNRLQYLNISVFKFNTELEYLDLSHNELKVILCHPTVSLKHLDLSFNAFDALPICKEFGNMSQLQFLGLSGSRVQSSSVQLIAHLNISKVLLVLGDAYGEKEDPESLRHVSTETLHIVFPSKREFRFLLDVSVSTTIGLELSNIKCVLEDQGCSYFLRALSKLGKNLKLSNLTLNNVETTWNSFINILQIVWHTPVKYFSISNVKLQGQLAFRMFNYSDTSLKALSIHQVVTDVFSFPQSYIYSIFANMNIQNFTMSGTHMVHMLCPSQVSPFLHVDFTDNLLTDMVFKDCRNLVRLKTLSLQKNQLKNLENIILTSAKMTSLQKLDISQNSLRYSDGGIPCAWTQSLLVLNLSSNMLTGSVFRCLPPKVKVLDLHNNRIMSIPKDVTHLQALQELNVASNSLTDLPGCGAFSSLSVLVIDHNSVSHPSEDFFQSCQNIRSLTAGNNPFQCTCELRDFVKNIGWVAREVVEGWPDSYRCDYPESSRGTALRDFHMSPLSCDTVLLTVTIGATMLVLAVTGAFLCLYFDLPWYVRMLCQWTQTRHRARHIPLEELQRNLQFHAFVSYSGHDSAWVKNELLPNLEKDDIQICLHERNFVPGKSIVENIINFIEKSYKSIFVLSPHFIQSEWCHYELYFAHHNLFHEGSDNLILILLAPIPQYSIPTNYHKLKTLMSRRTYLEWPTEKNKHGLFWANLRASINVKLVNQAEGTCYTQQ

Structure (SMILES) | pIC50 (Toll-like receptor 1/2) | Activity [1] | inhibition [2] | other results
CC(=O)Oc1cc2cccc(O)c(=O)c2c(O)c1O | 5.32 | – | – | –
Oc1ccc(/N=C/c2c(O)ccc3ccccc23)cc1 | – | Non-Toxic | > 70% | –
CCCCCCCCOC(=O)c1cc(O)c(=O)c2c(O)c(O)c(OC)cc2c1 | 6.14 | – | – | –
C=C(C)[C@H]1Cc2c(ccc3c2O[C@@H]2COc4cc(OC)c(OC)cc4[C@@H]2C3=O)O1 [ROTENONE] | – | Non-Toxic | > 70% | –
COc1cc2cc(C(=O)OC(C)C)cc(O)c(=O)c2c(O)c1O | 5.61 | – | – | –
O=[N+]([O-])c1cc(Cl)cc2c1nc(NCCO)c1ccccc12 | – | Non-Toxic | > 70% | –
O=c1c(O)cccc2cc(F)c(O)c(O)c12 | 4.64 | – | – | –
CCCCCCCCCCCCCCOC(=O)c1cc(O)c(=O)c2c(O)c(O)c(OC)cc2c1 | 5.49 | – | – | –
CC(=O)Oc1cc2c(c(OC(C)=O)c1OC(C)=O)C(=O)C1(OC(C)=O)C=CC2C2C(=O)OC(=O)C21 (stereo not given) | 4.83 | – | – | –
COc1cc2cccc(OC)c(=O)c2c(O)c1OC | 4.93 | – | – | –
O=c1c(O)cccc2ccc(O)c(O)c12 | 5.65 | – | – | –
Cc1cc(O)c(O)c2c(=O)c(O)cccc12 | 5.50 | – | – | –
CCCCCCCCCCOC(=O)c1cc(O)c(=O)c2c(O)c(O)c(OC)cc2c1 | 6.00 | – | – | –
CC(=O)Oc1cc2cccc(OC(C)=O)c(=O)c2c(OC(C)=O)c1OC(C)=O | 5.63 | – | – | –
CC(=O)Oc1cc2cccc(OC(C)=O)c(=O)c2c(O)c1OC(C)=O | 5.85 | – | – | –
O=C(Nc1ccc(Cl)c(Cl)c1)Nc1ccccc1O | – | Non-Toxic | > 70% | –
COc1cccc(NC(S)=Nc2ccc(O)cc2)c1 | – | Non-Toxic | > 70% | –
CC(=O)/C=C/Nc1ccccc1O | – | Non-Toxic | > 70% | –
O=c1c(O)cccc2cc(O)c(O)c(O)c12 [PURPUROGALLIN] | – | Non-Toxic | > 70% | –
COc1cc2c(c(OC)c1OC)C(=O)C1(OC)C=CC2C2C(=O)OC(=O)C21 (stereo not given) | 4.13 | – | – | –
CCCCNC(=O)c1cc(O)c(=O)c2c(O)c(O)c(OC)cc2c1 | 5.90 | – | – | –
CN1CCN(C(=O)/C=C/c2ccc([N+](=O)[O-])o2)CC1 | – | Non-Toxic | > 70% | –
O=C(O)c1cc(O)c(=O)c2c(O)c(O)ccc2c1 [7-DESHYDROXYPYROGALLIN-4-CARBOXYLIC ACID] | 4.78 | – | – | –
COC(=O)c1cc(O)c(=O)c2c(O)c(O)ccc2c1 [METHYL 7-DESHYDROXYPYROGALLIN-4-CARBOXYLATE] | 5.05 | – | – | –
O=C(/C=C/c1ccc(O)c(O)c1)c1ccccc1O | – | Non-Toxic | > 70% | –
CCCCCCOC(=O)c1cc(O)c(=O)c2c(O)c(O)c(OC)cc2c1 | – | – | > 70% | inhibition [3]: Dose-dependent effect; inhibition [4]: Active; inhibition [5]: Dose-dependent effect; inhibition (RAW264.7 [6]): Active; Activity [7]: Non-Toxic; inhibition (RAW264.7 [8]): Active; inhibition [9]: Active; inhibition [10]: Active
CCOC(=O)c1cc(O)c(=O)c2c(O)c(O)c(OC)cc2c1 | 5.55 | – | – | –
CCCCOC(=O)c1cc(O)c(=O)c2c(O)c(O)c(OC)cc2c1 | 5.55 | – | – | –
